Results: PMC8151276, “An Integrated Approach toward NanoBRET Tracers for Analysis of GPCR Ligand Engagement” (Molecules, 2021)

Assays:
Assay type in all cases: binding
SSTR4 = molecular target: T1, SSTR4 (Homo sapiens, UniProt P31391); assay: NanoBRET screen HiBiT-SSTR4 in HEK293
T1 construct: purchased Promega (in-house HiBiT-GPCR construct library, NanoBRET)
Procedure: (§1) Each tracer candidate was screened across the entire library of HiBiT-GPCR constructs using NanoBRET as the detection modality. As depicted in Figure 4A, the specificity of interactions was evaluated through decrease in BRET due to competitive displacement of a bound tracer by excess parental compound. Each tracer was analyzed for binding to each HiBiT-GPCR fusion in the absence and in the presence of competing parental compound. Briefly, HEK293 cells were transfected with HiBiT-GPCR constructs diluted into promoterless DNA to reduce expression and maximize translocation to the cell surface. Each tracer candidate was then screened at concentrations of 1 μM and 0.1 μM across cells expressing these fusions. Cells were treated for 1.5 h with tracer either alone or in the presence of 20 μM competing parental compound (i.e., control). BRET was measured upon addition of purified LgBiT and subsequent complementation with HiBiT genetically fused to a GPCR. The specificity of interactions was assessed through a decrease in BRET signal due to competitive displacement of the bound tracer. To further gauge the robustness of these interactions, the fold response over the control (i.e., BRETtracer/BRETcontrol) was calculated. We chose a 1.5-fold response, which translates to ≥7-fold signal over noise as the minimal threshold required to score an interaction as positive. […]. Below we highlight the screening results obtained for our exemplary fluorescent tracers based on Clozapine, Amitriptyline and AZD1283.
(§2) HiBiT-GPCR DNA constructs were diluted in 10 mM Tris pH 8 to a final concentration of 0.01 μg/μL, arrayed in 96-well plates and stored at −20 °C. For transfection, HEK293 cells were suspended in Opti-MEM (without phenol red) supplemented with 2% fetal bovine serum (Seradigm) and 100 units/mL penicillin–streptomycin (Gibco) at a final concentration of 220,000 cells/mL and dispensed into white 96-well plates at 90 μL/well. Subsequent transfections and screens were carried using an Agilent Bravo Automated Liquid Handling Platform. First, the 96-well HiBiT DNA arrays were diluted 25-fold in Opti-MEM (without serum or phenol red) to a final concentration of 0.0004 μg/μL and 20 μL of the diluted DNAs were transferred into new 96-well plates. Next, promoterless carrier DNA (1 μg/μL) was diluted 25-fold (0.04 μg/μL) and then dispensed into the diluted arrays at 20 μL/well. Following brief mixing, Viafect transfection reagent (Promega) diluted 16-fold into Opti-MEM was dispensed into the plates at 40 μL/well. After mixing by pipetting, plates were incubated for 10 min on the pipetting station deck. The DNA-transfection reagent complexes were then added to plates containing cells. To facilitate the screen, 10 μL of DNA-transfection reagent complexes were added in duplicates to the top 4 and bottom 4 rows, resulting in two identical 48-well arrays per plate. Plates with transfected cells were incubated for 18–20 h at 37 °C/5% CO2. A screen of each tracer across the entire library using two different concentrations requires duplicate plates of transfected cells. Depending on the number of tracers being screened, transfections can be scaled up using the same ratios. The next day, for each tracer, four 20× screening solutions in tracer dilution buffer (Promega) were prepared: two duplicates at final concentration of 20 μM and two duplicates at a final concentration of 2 μM. A competing unmodified compound was added to one of each duplicate at a final concentration of 400 μM. The four resulting solutions were diluted 4-fold in Opti-MEM without serum or phenol red to generate 5× solutions (5 µM and 0.5 µM tracer +/− 100 μM competing compound). To screen the library, a BioTek MultiFlo FX liquid dispenser was used to dispense 22.5 µL of tracer solution to the top 4 rows and 22.5 µL tracer + competing compound solution to the 4 bottom rows. Plates were briefly mixed on an orbital shaker and incubated for 1.5 h at room temperature. […]

PTGER2 = molecular target: T2, PTGER2 (Homo sapiens, UniProt P43116); assay: NanoBRET screen HiBiT-PTGER2 in HEK293
T2 construct: purchased Promega (in-house HiBiT-GPCR construct library, NanoBRET)
Procedure: as §1, §2

PTAFR = molecular target: T3, PTAFR (Homo sapiens, UniProt P25105); assay: NanoBRET screen HiBiT-PTAFR in HEK293
T3 construct: purchased Promega (in-house HiBiT-GPCR construct library, NanoBRET)
Procedure: as §1, §2

GRM4 = molecular target: T4, GRM4 (Homo sapiens, UniProt Q14833); assay: NanoBRET screen HiBiT-GRM4 in HEK293
T4 construct: purchased Promega (in-house HiBiT-GPCR construct library, NanoBRET)
Procedure: as §1, §2

FZD2 = molecular target: T5, FZD2 (Homo sapiens, UniProt Q14332); assay: NanoBRET screen HiBiT-FZD2 in HEK293
T5 construct: purchased Promega (in-house HiBiT-GPCR construct library, NanoBRET)
Procedure: as §1, §2

CCKBR = molecular target: T6, CCKBR (Homo sapiens, UniProt P32239); assay: NanoBRET screen HiBiT-CCKBR in HEK293
T6 construct: purchased Promega (in-house HiBiT-GPCR construct library, NanoBRET)
T6 sequence (P32239 1-447): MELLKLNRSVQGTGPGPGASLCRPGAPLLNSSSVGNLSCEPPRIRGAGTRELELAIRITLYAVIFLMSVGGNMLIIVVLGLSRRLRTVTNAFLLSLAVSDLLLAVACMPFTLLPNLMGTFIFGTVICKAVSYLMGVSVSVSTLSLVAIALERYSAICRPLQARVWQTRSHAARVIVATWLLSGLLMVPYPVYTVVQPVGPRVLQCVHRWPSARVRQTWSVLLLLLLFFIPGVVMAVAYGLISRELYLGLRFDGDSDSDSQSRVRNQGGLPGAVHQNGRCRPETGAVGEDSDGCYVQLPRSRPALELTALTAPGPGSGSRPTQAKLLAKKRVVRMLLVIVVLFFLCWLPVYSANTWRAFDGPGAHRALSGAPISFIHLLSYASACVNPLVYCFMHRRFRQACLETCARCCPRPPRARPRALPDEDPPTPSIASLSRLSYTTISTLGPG
Procedure: as §1, §2

T1 sequence (P31391 whole entry): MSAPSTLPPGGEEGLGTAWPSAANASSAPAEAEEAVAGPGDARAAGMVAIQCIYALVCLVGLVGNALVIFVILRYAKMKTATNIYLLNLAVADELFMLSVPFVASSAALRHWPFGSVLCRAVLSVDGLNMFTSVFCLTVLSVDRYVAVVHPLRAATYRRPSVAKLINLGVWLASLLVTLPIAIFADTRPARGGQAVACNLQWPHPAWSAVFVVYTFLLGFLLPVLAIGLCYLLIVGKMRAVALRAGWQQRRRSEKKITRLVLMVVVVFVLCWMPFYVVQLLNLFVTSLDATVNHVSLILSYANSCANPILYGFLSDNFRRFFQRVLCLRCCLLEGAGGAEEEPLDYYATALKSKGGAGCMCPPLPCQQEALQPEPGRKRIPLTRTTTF
T2 sequence (P43116 whole entry): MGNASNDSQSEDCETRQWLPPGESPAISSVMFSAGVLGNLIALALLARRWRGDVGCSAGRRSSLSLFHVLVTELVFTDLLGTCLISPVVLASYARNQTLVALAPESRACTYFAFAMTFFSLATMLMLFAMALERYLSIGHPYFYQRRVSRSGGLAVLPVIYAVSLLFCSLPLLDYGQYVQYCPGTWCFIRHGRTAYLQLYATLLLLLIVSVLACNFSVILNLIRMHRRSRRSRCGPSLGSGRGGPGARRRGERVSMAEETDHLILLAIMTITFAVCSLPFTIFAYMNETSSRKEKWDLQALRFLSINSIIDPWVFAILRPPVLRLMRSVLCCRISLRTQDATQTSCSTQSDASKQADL
T3 sequence (P25105 whole entry): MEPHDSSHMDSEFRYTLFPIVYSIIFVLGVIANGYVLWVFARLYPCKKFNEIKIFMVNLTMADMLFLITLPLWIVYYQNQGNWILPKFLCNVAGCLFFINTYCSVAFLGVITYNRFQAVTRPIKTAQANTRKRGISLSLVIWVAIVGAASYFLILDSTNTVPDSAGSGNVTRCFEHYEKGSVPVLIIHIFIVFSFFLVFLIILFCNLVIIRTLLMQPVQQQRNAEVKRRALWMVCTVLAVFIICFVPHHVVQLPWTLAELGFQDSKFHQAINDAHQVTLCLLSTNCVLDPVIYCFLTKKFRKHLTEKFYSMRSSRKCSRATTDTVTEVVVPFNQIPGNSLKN
T4 sequence (Q14833 33-912): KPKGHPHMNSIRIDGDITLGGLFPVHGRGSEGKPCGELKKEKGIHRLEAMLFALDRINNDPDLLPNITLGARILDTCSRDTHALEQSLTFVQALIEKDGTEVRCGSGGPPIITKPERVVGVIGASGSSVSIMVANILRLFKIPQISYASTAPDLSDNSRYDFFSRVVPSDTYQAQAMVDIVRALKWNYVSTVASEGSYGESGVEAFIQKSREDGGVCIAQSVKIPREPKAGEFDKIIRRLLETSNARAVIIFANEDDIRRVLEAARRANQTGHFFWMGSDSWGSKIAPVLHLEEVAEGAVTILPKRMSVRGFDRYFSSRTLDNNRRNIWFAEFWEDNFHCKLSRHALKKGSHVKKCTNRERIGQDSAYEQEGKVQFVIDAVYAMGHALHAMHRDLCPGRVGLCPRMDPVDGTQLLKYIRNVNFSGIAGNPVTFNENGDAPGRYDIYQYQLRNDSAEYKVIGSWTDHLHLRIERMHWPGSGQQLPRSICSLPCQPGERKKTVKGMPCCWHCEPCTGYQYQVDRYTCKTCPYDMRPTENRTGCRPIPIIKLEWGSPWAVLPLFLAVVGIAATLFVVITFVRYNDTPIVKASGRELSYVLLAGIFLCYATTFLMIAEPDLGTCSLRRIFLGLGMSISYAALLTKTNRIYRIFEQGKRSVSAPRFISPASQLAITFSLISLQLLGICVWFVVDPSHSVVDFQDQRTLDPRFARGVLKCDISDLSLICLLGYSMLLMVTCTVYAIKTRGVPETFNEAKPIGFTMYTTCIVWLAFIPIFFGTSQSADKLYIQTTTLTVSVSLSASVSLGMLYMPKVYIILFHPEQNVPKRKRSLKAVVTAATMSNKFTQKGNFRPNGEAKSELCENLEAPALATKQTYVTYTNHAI
T5 sequence (Q14332 24-565): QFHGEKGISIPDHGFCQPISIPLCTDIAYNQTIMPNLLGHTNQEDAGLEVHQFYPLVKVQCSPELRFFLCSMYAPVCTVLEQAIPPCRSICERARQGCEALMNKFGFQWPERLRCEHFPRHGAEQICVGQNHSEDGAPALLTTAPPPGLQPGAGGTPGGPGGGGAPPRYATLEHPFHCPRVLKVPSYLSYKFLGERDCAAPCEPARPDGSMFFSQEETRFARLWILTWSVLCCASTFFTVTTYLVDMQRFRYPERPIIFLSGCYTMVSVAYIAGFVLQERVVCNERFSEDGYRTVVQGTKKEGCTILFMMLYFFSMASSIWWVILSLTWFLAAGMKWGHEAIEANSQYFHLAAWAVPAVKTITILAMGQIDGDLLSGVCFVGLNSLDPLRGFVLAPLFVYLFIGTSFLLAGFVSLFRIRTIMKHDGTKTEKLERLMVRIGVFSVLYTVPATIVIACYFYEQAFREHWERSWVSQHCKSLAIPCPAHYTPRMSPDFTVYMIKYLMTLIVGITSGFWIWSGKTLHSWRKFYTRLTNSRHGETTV

| Structure (SMILES) | NanoBRET Fold Response (SSTR4; SSTR4, tracer 0.1μM) | NanoBRET Fold Response (SSTR4; SSTR4, tracer 1μM) | NanoBRET Fold Response (PTGER2; PTGER2, tracer 0.1μM) | NanoBRET Fold Response (PTGER2; PTGER2, tracer 1μM) | NanoBRET Fold Response (PTAFR; PTAFR, tracer 0.1μM) | NanoBRET Fold Response (PTAFR; PTAFR, tracer 1μM) | NanoBRET Fold Response (GRM4; GRM4, tracer 0.1μM) | NanoBRET Fold Response (GRM4; GRM4, tracer 1μM) | NanoBRET Fold Response (FZD2; FZD2, tracer 0.1μM) | NanoBRET Fold Response (FZD2; FZD2, tracer 1μM) | NanoBRET Fold Response (CCKBR; CCKBR, tracer 0.1μM) | NanoBRET Fold Response (CCKBR; CCKBR, tracer 1μM) | also measured |
| --- | --- | --- | --- | --- | --- | --- | --- | --- | --- | --- | --- | --- | --- |
| CCCn1c(=O)c2[nH]c(-c3ccc(OCC(=O)NCCNC(=O)CCOCCNC(=O)c4ccc(CNC(=O)CCc5ccc6n5[B-](F)(F)[N+]5=C(c7ccc[nH]7)C=CC5=C6)cc4)cc3)nc2n(CCC)c1=O [XAC-3-NB590] | 1.01 | 0.93 | 1.04 | 1.09 | 0.90 | 1.15 | 1.03 | 1.07 | 1.09 | 1.04 | 1.02 | 0.85 |  |
| O=C(CCc1ccc2n1[B-](F)(F)[N+]1=C(c3ccc[nH]3)C=CC1=C2)NCc1ccc(C(=O)NCCOCCOCCNCC(O)COc2cccc3ccccc23)cc1 (stereo not drawn) [Propranolol-3-NB590] |  |  |  |  |  |  |  |  |  |  |  |  | NanoBRET Fold Response (SSTR4; SSTR4, 0.1μM): 1.02; NanoBRET Fold Response (SSTR4; SSTR4, 1μM): 0.98; NanoBRET Fold Response (PTGER2; PTGER2, 0.1μM): 1.00; NanoBRET Fold Response (PTGER2; PTGER2, 1μM): 1.02; NanoBRET Fold Response (PTAFR; PTAFR, 0.1μM): 1.02; NanoBRET Fold Response (PTAFR; PTAFR, 1μM): 1.04; NanoBRET Fold Response (GRM4; GRM4, 0.1μM): 1.11; NanoBRET Fold Response (GRM4; GRM4, 1μM): 1.04; NanoBRET Fold Response (FZD2; FZD2, 0.1μM): 0.97; NanoBRET Fold Response (FZD2; FZD2, 1μM): 1.01; NanoBRET Fold Response (CCKBR; CCKBR, 0.1μM): 1.05; NanoBRET Fold Response (CCKBR; CCKBR, 1μM): 0.91 |
| O=C(CCc1ccc2n1[B-](F)(F)[N+]1=C(c3ccc[nH]3)C=CC1=C2)NCc1ccc(C(=O)NCCOCCC(=O)N[C@@H]2CC[C@@]3(O)[C@H]4Cc5ccc(O)c6c5[C@@]3(CCN4CC3CC3)[C@H]2O6)cc1 [Naltrexone-3-NB590] | 0.99 | 0.90 | 1.04 | 1.00 | 1.24 | 0.78 | 0.75 | 1.05 | 0.84 | 0.88 | 0.79 | 0.93 |  |
| N#CN=C(NCCCOc1cccc(CN2CCCCC2)c1)NCCNC(=O)CCOCCOCCOCCOCCNC(=O)CCc1ccc2n1[B-](F)(F)[N+]1=C(c3ccc[nH]3)C=CC1=C2 [Aminopotentidine-2-NB590] | 1.08 | 1.00 | 0.99 | 1.03 | 0.95 | 1.02 | 1.02 | 1.01 | 1.08 | 1.06 | 1.17 | 1.04 |  |
| COc1ccc2c(n1)c(CCNC(C)=O)cn2CCNC(=O)CCc1ccc2n1[B-](F)(F)[N+]1=C(c3ccc[nH]3)C=CC1=C2 [Azamelatonin-1-NB590] |  |  |  |  |  |  |  |  |  |  |  |  | NanoBRET Fold Response (SSTR4; 0.1μM tracer): 0.93; NanoBRET Fold Response (SSTR4; 1μM tracer): 1.01; NanoBRET Fold Response (PTGER2; 0.1μM tracer): 1.01; NanoBRET Fold Response (PTGER2; 1μM tracer): 1.07; NanoBRET Fold Response (PTAFR; 0.1μM tracer): 1.05; NanoBRET Fold Response (PTAFR; 1μM tracer): 1.05; NanoBRET Fold Response (GRM4; 0.1μM tracer): 1.09; NanoBRET Fold Response (GRM4; 1μM tracer): 0.78; NanoBRET Fold Response (FZD2; 0.1μM tracer): 0.95; NanoBRET Fold Response (FZD2; 1μM tracer): 0.95; NanoBRET Fold Response (CCKBR; 0.1μM tracer): 1.01; NanoBRET Fold Response (CCKBR; 1μM tracer): 1.02 |
